EC50 data for five molecules are collected here from EP3046573B1, “AMYLIN ANALOGUES” (Zealand Pharma A/S, priority 2013, dated 2015).

Test [1] addresses T1, human amylin receptor 3 (hAMYR3) consisting of hCTR2 co-expressed with human Receptor Activity Modifying Protein 3 (hRAMP3) (Homo sapiens, UniProt O60896+P30988).
T1 construct: expressed in transfected cells
T1 sequence (P30988 25-474): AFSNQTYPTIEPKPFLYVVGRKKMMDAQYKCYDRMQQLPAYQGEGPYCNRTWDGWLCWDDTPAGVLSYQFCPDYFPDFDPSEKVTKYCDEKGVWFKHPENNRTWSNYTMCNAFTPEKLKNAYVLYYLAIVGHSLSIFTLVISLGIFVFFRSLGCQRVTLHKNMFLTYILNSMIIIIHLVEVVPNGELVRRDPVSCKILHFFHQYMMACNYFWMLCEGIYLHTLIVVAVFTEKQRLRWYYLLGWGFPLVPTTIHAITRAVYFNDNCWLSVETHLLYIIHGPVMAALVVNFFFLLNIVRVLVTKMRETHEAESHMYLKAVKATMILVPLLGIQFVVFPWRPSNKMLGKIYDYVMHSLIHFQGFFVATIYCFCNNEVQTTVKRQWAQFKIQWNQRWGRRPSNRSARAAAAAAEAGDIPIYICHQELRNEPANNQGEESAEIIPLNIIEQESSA
T1 sequence (O60896 24-148 partner): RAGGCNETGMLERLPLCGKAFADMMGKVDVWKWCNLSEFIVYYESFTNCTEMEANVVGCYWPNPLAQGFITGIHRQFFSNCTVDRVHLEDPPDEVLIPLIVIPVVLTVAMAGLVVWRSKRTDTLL
Description: hAMYR3 assay: induction of cAMP (AlphaScreen cAMP Assay kit) in COS7 cells expressing hAMYR3. Format: cell-based. Summed up:
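Stable COS7 clone co-expressing hCTR2 and hRAMP3, stimulated 15 min at 37° C with increasing peptide in Tyrode buffer pH 7.4 with 100 µM IBMX and 0.1% casein. cAMP measured by AlphaScreen after lysis; EC50 and % efficacy versus pramlintide from 4PL fit.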
Background: Alpha assays give light when donor and acceptor beads are brought close together.

Test [2] addresses T2, human calcitonin receptor (hCTR2) (Homo sapiens, UniProt P30988).
T2 construct: expressed in transfected cells
T2 sequence (P30988 25-474): T1 sequence (P30988 25-474)
Description: hCTR2 assay: induction of cAMP (AlphaScreen cAMP Assay kit) in COS7 cells expressing hCTR2. The format is cell-based. Summed up: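 COS7 stable hCTR2 clone (RAMP-free); peptide dose-response 15 min 37° C in Tyrode pH 7.4 + 100 µM IBMX + 0.1% casein; lysis 10 min RT; AlphaScreen cAMP; 4PL fit.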

Read-outs that look alike come from different tables or passages of the source. Numbered stars: 1 amine (or outer) side, 2 acyl side, 3 side chain; on linkers, the order of the positions; unused ones are H or OH. Bridge positions count the residues as written; N and C are the ends. Square brackets hold non-standard residues; d marks the D form. Peptide text beside a SMILES is read from it. * marks the point of attachment. C20 diacid = O=C(O)CCCCCCCCCCCCCCCCCCC(=O)*; γGlu = O=C(O)[C@H](CCC(=O)[*:2])N[*:1]; NMeI = CC[C@H](C)[C@H](NC)C(=O)O; Sar = CNCC(=O)O

For `CC[C@H](C)[C@@H](C(=O)N[C@@H](CC(C)C)C(=O)N[C@@H](CO)C(=O)N[C@@H](CO)C(=O)N[C@H](C(=O)N[C@@H](CC(N)=O)C(=O)N[C@H](C(=O)NCC(=O)N[C@@H](CO)C(=O)N[C@@H](CC(N)=O)C(=O)N[C@H](C(=O)N1CCC[C@H]1C(N)=O)[C@@H](C)O)C(C)C)[C@@H](C)O)N(C)C(=O)[C@H](C)NC(=O)CN(C)C(=O)[C@H](Cc1ccccc1)NC(=O)[C@H](CC(N)=O)NC(=O)[C@H](CC(N)=O)NC(=O)[C@H](CO)NC(=O)[C@H](CO)NC(=O)[C@H](Cc1c[nH]cn1)NC(=O)[C@H](Cc1c[nH]cn1)NC(=O)[C@H](CC(C)C)NC(=O)[C@H](Cc1ccccc1)NC(=O)[C@H](CCC(=O)O)NC(=O)[C@H](C)NC(=O)[C@H](CC(C)C)NC(=O)[C@H](CCCNC(=N)N)NC(=O)[C@H](CCC(N)=O)NC(=O)[C@@H](NC(=O)[C@H](C)NC(=O)[C@@H]1CSSC[C@H](NC(=O)[C@H](CCCNC(=N)N)NC(=O)CC[C@H](NC(=O)CCCCCCCCCCCCCCCCCCC(=O)O)C(=O)O)C(=O)N[C@@H](CC(N)=O)C(=O)N[C@@H]([C@@H](C)O)C(=O)N[C@@H](C)C(=O)N[C@@H]([C@@H](C)O)C(=O)N1)[C@@H](C)O` [Compound 1, [19CD]-isoGlu-RC()NTATC()ATQRLAEFLHHSSNNF-Gly(Me)-A-Ile(Me)-LSSTNVGSNTP-NH2] ({C20 diacid-γGlu}-RCNTATCATQRLAEFLHHSSNNF[Sar]A[NMeI]LSSTNVGSNTP-NH2; disulfide 2-7), in test [1], it took 0.21 nM to reach a half-maximal effect (EC50).
Regarding `CC[C@H](C)[C@@H](C(=O)N[C@@H](CC(C)C)C(=O)N[C@@H](CO)C(=O)N[C@@H](CO)C(=O)N[C@H](C(=O)N[C@@H](CC(N)=O)C(=O)N[C@H](C(=O)NCC(=O)N[C@@H](CO)C(=O)N[C@@H](CC(N)=O)C(=O)N[C@H](C(=O)N1CCC[C@H]1C(N)=O)[C@@H](C)O)C(C)C)[C@@H](C)O)N(C)C(=O)[C@H](C)NC(=O)CN(C)C(=O)[C@H](Cc1ccccc1)NC(=O)[C@H](CC(N)=O)NC(=O)[C@H](CC(N)=O)NC(=O)[C@H](CO)NC(=O)[C@H](CO)NC(=O)[C@H](CCCNC(=N)N)NC(=O)[C@H](Cc1c[nH]cn1)NC(=O)[C@H](CC(C)C)NC(=O)[C@H](Cc1ccccc1)NC(=O)[C@H](CCC(=O)O)NC(=O)[C@H](C)NC(=O)[C@H](CC(C)C)NC(=O)[C@H](CCCNC(=N)N)NC(=O)[C@H](CCC(N)=O)NC(=O)[C@@H](NC(=O)[C@H](C)NC(=O)[C@@H]1CSSC[C@H](NC(=O)[C@H](CCCNC(=N)N)NC(=O)CC[C@H](NC(=O)CCCCCCCCCCCCCCCCCCC(=O)O)C(=O)O)C(=O)N[C@@H](CC(N)=O)C(=O)N[C@@H]([C@@H](C)O)C(=O)N[C@@H](C)C(=O)N[C@@H]([C@@H](C)O)C(=O)N1)[C@@H](C)O` [Compound 18, [19CD]-isoGlu-RC()NTATC()ATQRLAEFLHRSSNNF-Gly(Me)-A-Ile(Me)-LSSTNVGSNTP-NH2] ({C20 diacid-γGlu}-RCNTATCATQRLAEFLHRSSNNF[Sar]A[NMeI]LSSTNVGSNTP-NH2; disulfide 2-7), the concentration giving a half-maximal response (EC50) (usually the concentration that produces a half-maximal response) was found to be 0.06 nM in test [2] and 0.17 nM in test [1].
For `CC[C@H](C)[C@@H](C(=O)N[C@@H](CC(C)C)C(=O)N[C@H](CO)C(=O)N[C@@H](CO)C(=O)N[C@H](C(=O)N[C@@H](CC(N)=O)C(=O)N[C@H](C(=O)NCC(=O)N[C@@H](CO)C(=O)N[C@@H](CC(N)=O)C(=O)N[C@H](C(=O)N1CCC[C@H]1C(N)=O)[C@@H](C)O)C(C)C)[C@@H](C)O)N(C)C(=O)[C@H](C)NC(=O)CN(C)C(=O)[C@@H](Cc1ccccc1)NC(=O)[C@H](CC(N)=O)NC(=O)[C@H](CC(N)=O)NC(=O)[C@H](CO)NC(=O)[C@H](CO)NC(=O)[C@H](CCCNC(=N)N)NC(=O)[C@H](Cc1c[nH]cn1)NC(=O)[C@H](CC(C)C)NC(=O)[C@H](Cc1ccccc1)NC(=O)[C@H](CCC(=O)O)NC(=O)[C@H](C)NC(=O)[C@H](CC(C)C)NC(=O)[C@H](CCCNC(=N)N)NC(=O)[C@H](CCC(N)=O)NC(=O)[C@@H](NC(=O)[C@H](C)NC(=O)[C@@H]1CSSC[C@H](NC(=O)[C@H](CCCCN)NC(=O)CC[C@H](NC(=O)CCCCCCCCCCCCCCCCCCC(=O)O)C(=O)O)C(=O)N[C@@H](CC(N)=O)C(=O)N[C@@H]([C@@H](C)O)C(=O)N[C@@H](C)C(=O)N[C@@H]([C@@H](C)O)C(=O)N1)[C@@H](C)O` [Compound 72, [19CD]-isoGlu-KC()NTATC()ATQRLAEFLHRSSNN-DPhe-Gly(Me)-A-Ile(Me)-L-DSer-STNVGSNTP] ({C20 diacid-γGlu}-KCNTATCATQRLAEFLHRSSNN[dF][Sar]A[NMeI]L[dS]STNVGSNTP-NH2; disulfide 2-7), in that order: 0.071 nM and 0.098 nM.
`CC[C@H](C)[C@@H](C(=O)N[C@@H](CC(C)C)C(=O)N[C@@H](CO)C(=O)N[C@@H](CO)C(=O)N[C@H](C(=O)N[C@@H](CC(=O)O)C(=O)N[C@H](C(=O)NCC(=O)N[C@@H](CO)C(=O)N[C@@H](CC(=O)O)C(=O)N[C@H](C(=O)N1CCC[C@H]1C(N)=O)[C@@H](C)O)C(C)C)[C@@H](C)O)N(C)C(=O)[C@H](C)NC(=O)CN(C)C(=O)[C@H](Cc1ccccc1)NC(=O)[C@H](CO)NC(=O)[C@H](CO)NC(=O)[C@H](CO)NC(=O)[C@H](CO)NC(=O)[C@H](CCCNC(=N)N)NC(=O)[C@H](Cc1c[nH]cn1)NC(=O)[C@H](CC(C)C)NC(=O)[C@H](Cc1ccccc1)NC(=O)[C@H](CCC(=O)O)NC(=O)[C@H](C)NC(=O)[C@H](CC(C)C)NC(=O)[C@H](CCCNC(=N)N)NC(=O)[C@H](CCC(N)=O)NC(=O)[C@@H](NC(=O)[C@H](C)NC(=O)[C@@H]1CSSC[C@H](NC(=O)[C@H](CCCNC(=N)N)NC(=O)CC[C@H](NC(=O)CCCCCCCCCCCCCCCCCCC(=O)O)C(=O)O)C(=O)N[C@@H](CC(N)=O)C(=O)N[C@@H]([C@@H](C)O)C(=O)N[C@@H](C)C(=O)N[C@@H]([C@@H](C)O)C(=O)N1)[C@@H](C)O` [Compound 73, [19CD]-isoGlu-RC()NTATC()ATQRLAEFLHRSSSSF-Gly(Me)-A-Ile(Me)-LSSTDVGSDTP-NH2] ({C20 diacid-γGlu}-RCNTATCATQRLAEFLHRSSSSF[Sar]A[NMeI]LSSTDVGSDTP-NH2; disulfide 2-7): the concentration giving a half-maximal response (EC50) in test [2] (cAMP induction in COS7 cells expressing hCTR2, average of a minimum of 3 determinations, read-out: hCTR2 EC50) came to 0.072 nM; in test [1] (cAMP induction in COS7 cells expressing hAMYR3, average of a minimum of 3 determinations, read-out: hAMY R3 EC50) it was 0.14 nM.
Turning to `CC[C@H](C)[C@@H](C(=O)N[C@@H](CC(C)C)C(=O)N[C@@H](CO)C(=O)N[C@@H](CO)C(=O)N[C@H](C(=O)N[C@@H](CC(N)=O)C(=O)N[C@H](C(=O)NCC(=O)N[C@@H](CO)C(=O)N[C@@H](CC(N)=O)C(=O)N[C@H](C(=O)N1CCC[C@H]1C(N)=O)[C@@H](C)O)C(C)C)[C@@H](C)O)N(C)C(=O)[C@H](C)NC(=O)CN(C)C(=O)[C@H](Cc1ccccc1)NC(=O)[C@H](CC(N)=O)NC(=O)[C@H](CC(N)=O)NC(=O)[C@H](CO)NC(=O)[C@H](CO)NC(=O)[C@H](CCCNC(=N)N)NC(=O)[C@H](Cc1c[nH]cn1)NC(=O)[C@H](CC(C)C)NC(=O)[C@H](Cc1ccccc1)NC(=O)[C@H](CCC(=O)O)NC(=O)[C@H](C)NC(=O)[C@H](CC(C)C)NC(=O)[C@H](CCCNC(=N)N)NC(=O)[C@H](CCC(N)=O)NC(=O)[C@@H](NC(=O)[C@H](C)NC(=O)[C@@H]1CSSC[C@H](NC(=O)[C@H](CCCCN)NC(=O)[C@H](CCCCN)NC(=O)CC[C@H](NC(=O)CCCCCCCCCCCCCCCCCCC(=O)O)C(=O)O)C(=O)N[C@@H](CC(N)=O)C(=O)N[C@@H]([C@@H](C)O)C(=O)N[C@@H](C)C(=O)N[C@@H]([C@@H](C)O)C(=O)N1)[C@@H](C)O` [Compound 87, [19CD]-isoGlu-KKC()NTATC()ATQRLAEFLHRSSNNF-Gly(Me)-A-Ile(Me)-LSSTNVGSNTP-NH2] ({C20 diacid-γGlu}-KKCNTATCATQRLAEFLHRSSNNF[Sar]A[NMeI]LSSTNVGSNTP-NH2; disulfide 3-8), the 50% effective concentration (EC50) in test [2] is 0.046 nM.
